Patent US12264134B2 (Merck Sharp & Dohme LLC, priority 2018, dated 2025)

Target: IDO1 (Homo sapiens, UniProt P14902)
Experiment: IDO1 Cellular Assay in HeLa Cells Stimulated with IFNγ
Type: cell-based
Details: read-out: HeLa Cell Potency, IC50

Chain of IDO1 (P14902 whole entry): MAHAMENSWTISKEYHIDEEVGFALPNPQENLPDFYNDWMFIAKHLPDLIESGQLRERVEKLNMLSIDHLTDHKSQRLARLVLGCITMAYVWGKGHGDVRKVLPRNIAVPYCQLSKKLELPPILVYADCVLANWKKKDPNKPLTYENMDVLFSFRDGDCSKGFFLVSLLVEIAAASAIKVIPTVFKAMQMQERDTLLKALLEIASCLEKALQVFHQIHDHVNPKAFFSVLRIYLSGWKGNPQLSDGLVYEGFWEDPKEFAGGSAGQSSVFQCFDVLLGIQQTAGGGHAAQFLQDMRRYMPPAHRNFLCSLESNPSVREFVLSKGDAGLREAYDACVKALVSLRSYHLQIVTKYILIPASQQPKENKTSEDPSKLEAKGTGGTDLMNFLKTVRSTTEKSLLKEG

SMILES | IC50 [nM]
Cc1cccc(N2CCN(C(=O)Cn3nc(C(=O)N4CCC(O)(C(N)=O)CC4)c4c3CCC4)CC2)c1C [Example 169, 1-(1-{2-[4-(2,3-dimethylphenyl)piperazin-1-yl]-2-oxoethyl}-1,4,5,6-tetrahydrocyclopenta[c]pyrazole-3-carbonyl)-4-hydroxypiperidine-4-carboxamide] | 30.4
Cc1cccc(N2CCN(C(=O)Cn3nc(C(=O)N4CCC(O)(CCC(F)(F)F)CC4)c4c3CCC4)CC2)c1C [Example 170, 1-[4-(2,3-dimethylphenyl)piperazin-1-yl]-2-{3-[4-hydroxy-4-(3,3,3-trifluoropropyl)piperidine-1-carbonyl]-5,6-dihydrocyclopenta[c]pyrazol-1(4H)-yl}ethan-1-one] | 6.31
Cc1cccc(N2CCN(C(=O)Cn3nc(C(=O)N4CCC5(C4)CC5(F)F)c4c3CCC4)CC2)c1C (stereo not shown) [Example 171, 2-[3-(1,1-difluoro-5-azaspiro[2.4]heptane-5-carbonyl)-5,6-dihydrocyclopenta[c]pyrazol-1(4H)-yl]-1-[4-(2,3-dimethylphenyl)piperazin-1-yl]ethan-1-one] | 5.79
Cc1cccc(N2CCN(C(=O)Cn3nc(C(=O)N4CCC5(CCNC5)CC4)c4c3CCC4)CC2)c1C [Example 175, 2-[3-(2,8-diazaspiro[4.5]decane-8-carbonyl)-5,6-dihydrocyclopenta[c]pyrazol-1(4H)-yl]-1-[4-(2,3-dimethylphenyl)piperazin-1-yl]ethan-1-one] | 498
Cc1cccc(N2CCN(C(=O)Cn3nc(C(=O)N4CCC(C)(N)CC4)c4c3CCC4)CC2)c1C [Example 176, 2-[3-(4-amino-4-methylpiperidine-1-carbonyl)-5,6-dihydrocyclopenta[c]pyrazol-1(4H)-yl]-1-[4-(2,3-dimethylphenyl)piperazin-1-yl]ethan-1-one] | 476
Cc1cccc(N2CCN(C(=O)Cn3nc(C(=O)N4CCC5(CCCN5)CC4)c4c3CCC4)CC2)c1C [Example 177, 2-[3-(1,8-diazaspiro[4.5]decane-8-carbonyl)-5,6-dihydrocyclopenta[c]pyrazol-1(4H)-yl]-1-[4-(2,3-dimethylphenyl)piperazin-1-yl]ethan-1-one] | 405
Cc1cccc(N2CCN(C(=O)Cn3nc(C(=O)N4CCC(F)(CN)CC4)c4c3CCC4)CC2)c1C [Example 178, 2-{3-[4-(aminomethyl)-4-fluoropiperidine-1-carbonyl]-5,6-dihydrocyclopenta[c]pyrazol-1(4H)-yl}-1-[4-(2,3-dimethylphenyl)piperazin-1-yl]ethan-1-one] | 16.4
Cc1cccc(N2CCN(C(=O)Cn3nc(C(=O)N4CCC(C)(CN)CC4)c4c3CCC4)CC2)c1C [Example 179, 2-{3-[4-(aminomethyl)-4-methylpiperidine-1-carbonyl]-5,6-dihydrocyclopenta[c]pyrazol-1(4H)-yl}-1-[4-(2,3-dimethylphenyl)piperazin-1-yl]ethan-1-one] | 82.8
Cc1cccc(N2CCN(C(=O)Cn3nc(C(=O)N4CCC(CN)CC4)c4c3CCC4)CC2)c1C [Example 180, 2-{3-[4-(aminomethyl)piperidine-1-carbonyl]-5,6-dihydrocyclopenta[c]pyrazol-1(4H)-yl}-1-[4-(2,3-dimethylphenyl)piperazin-1-yl]ethan-1-one] | 11.6
Cc1cccc(N2CCN(C(=O)Cn3nc(C(=O)N4CCC5(CC4)COCC5O)c4c3CCC4)CC2)c1C (stereo not shown) [Example 182, 1-[4-(2,3-dimethylphenyl)piperazin-1-yl]-2-[3-(4-hydroxy-2-oxa-8-azaspiro[4.5]decane-8-carbonyl)-5,6-dihydrocyclopenta[c]pyrazol-1(4H)-yl]ethan-1-one] | 6.25
Cc1cccc(N2CCN(C(=O)Cn3nc(C(=O)N4CCC5(CCCC(=O)N5)CC4)c4c3CCC4)CC2)c1C [Example 183, 9-(1-{2-[4-(2,3-dimethylphenyl)piperazin-1-yl]-2-oxoethyl}-1,4,5,6-tetrahydrocyclopenta[c]pyrazole-3-carbonyl)-1,9-diazaspiro[5.5]undecan-2-one] | 3.22
Cc1cccc(N2CCN(C(=O)Cn3nc(C(=O)N4CCC5(CC4)CNC(=O)N5)c4c3CCC4)CC2)c1C [Example 184, 8-(1-{2-[4-(2,3-dimethylphenyl)piperazin-1-yl]-2-oxoethyl}-1,4,5,6-tetrahydrocyclopenta[c]pyrazole-3-carbonyl)-1,3,8-triazaspiro[4.5]decan-2-one] | 80.2
CC(=O)NC1CCCN(C(=O)c2nn(CC(=O)N3CCN(c4cccc(C)c4C)CC3)c3c2CCC3)C1 (stereo not shown) [Example 185, N-[1-(1-{2-[4-(2,3-dimethylphenyl)piperazin-1-yl]-2-oxoethyl}-1,4,5,6-tetrahydrocyclopenta[c]pyrazole-3-carbonyl)piperidin-3-yl]acetamide] | 120
Cc1cccc(N2CCN(C(=O)Cn3nc(C(=O)N4CCCC(N(C)C)C4)c4c3CCC4)CC2)c1C (stereo not shown) [Example 186, 2-{3-[3-(dimethylamino)piperidine-1-carbonyl]-5,6-dihydrocyclopenta[c]pyrazol-1(4H)-yl}-1-[4-(2,3-dimethylphenyl)piperazin-1-yl]ethan-1-one] | 37.9
Cc1cccc(N2CCN(C(=O)Cn3nc(C(=O)N4CCCC(N5CCCC5)C4)c4c3CCC4)CC2)c1C (stereo not shown) [Example 187, 1-[4-(2,3-dimethylphenyl)piperazin-1-yl]-2-{3-[3-(pyrrolidin-1-yl)piperidine-1-carbonyl]-5,6-dihydrocyclopenta[c]pyrazol-1(4H)-yl}ethan-1-one] | 76.1
Cc1cccc(N2CCN(C(=O)Cn3nc(C(=O)N4CCC(NC(N)=O)CC4)c4c3CCC4)CC2)c1C [Example 188, N-[1-(1-{2-[4-(2,3-dimethylphenyl)piperazin-1-yl]-2-oxoethyl}-1,4,5,6-tetrahydrocyclopenta[c]pyrazole-3-carbonyl)piperidin-4-yl]urea] | 9.76
Cc1cccc(N2CCN(C(=O)Cn3nc(C(=O)N4CCC(O)(C(F)(F)F)CC4)c4c3CCC4)CC2)c1C [Example 189, 1-[4-(2,3-dimethylphenyl)piperazin-1-yl]-2-{3-[4-hydroxy-4-(trifluoromethyl)piperidine-1-carbonyl]-5,6-dihydrocyclopenta[c]pyrazol-1(4H)-yl}ethan-1-one] | 4.53
Cc1cccc(N2CCN(C(=O)Cn3nc(C(=O)N4CCC5(CC4)CNC(=O)CO5)c4c3CCC4)CC2)c1C [Example 190, 9-(1-{2-[4-(2,3-dimethylphenyl)piperazin-1-yl]-2-oxoethyl}-1,4,5,6-tetrahydrocyclopenta[c]pyrazole-3-carbonyll)-1-oxa-4,9-diazaspiro[5.5]undecan-3-one] | 1.62
Cc1cccc(N2CCN(C(=O)Cn3nc(C(=O)N4CCN5CCCC[C@H]5C4)c4c3CCC4)CC2)c1C [Example 191, 1-[4-(2,3-dimethylphenyl)piperazin-1-yl]-2-{3-[(9aS)-octahydro-2H-pyrido[1,2-a]pyrazine-2-carbonyl]-5,6-dihydrocyclopenta[c]pyrazol-1(4H)-yl}ethan-1-one] | 2.92
Cc1cccc(N2CCN(C(=O)Cn3nc(C(=O)N4CCCC5(CCNC5=O)C4)c4c3CCC4)CC2)c1C (stereo not shown) [Example 193, 7-(1-{2-[4-(2,3-dimethylphenyl)piperazin-1-yl]-2-oxoethyl}-1,4,5,6-tetrahydrocyclopenta[c]pyrazole-3-carbonyl)-2,7-diazaspiro[4.5]decan-1-one] | 75
CC(=O)NC1CCN(C(=O)c2nn(CC(=O)N3CCN(c4cccc(C)c4C)CC3)c3c2CCC3)C1 (stereo not shown) [Example 194, N-[1-(1-{2-[4-(2,3-dimethylphenyl)piperazin-1-yl]-2-oxoethyl}-1,4,5,6-tetrahydrocyclopenta[c]pyrazole-3-carbonyl)pyrrolidin-3-yl]acetamide] | 40
Cc1cccc(N2CCN(C(=O)Cn3nc(C(=O)N4CCNCC4)c4c3CCC4)CC2)c1C [Example 195, 1-[4-(2,3-dimethylphenyl)piperazin-1-yl]-2-[3-(piperazin-1-carbonyl)-5,6-dihydrocyclopenta[c]pyrazol-1(4H)-yl]ethan-1-one] | 189
Cc1cccc(N2CCN(C(=O)Cn3nc(C(=O)N4CC5C(N)C5C4)c4c3CCC4)CC2)c1C (stereo not shown) [Example 196, 2-[3-(6-amino-3-azabicyclo[3.1.0]hexane-3-carbonyl)-5,6-dihydrocyclopenta[c]pyrazol-1(4H)-yl]-1-[4-(2,3-dimethylphenyl)piperazin-1-yl]ethan-1-one] | 103
Cc1cccc(N2CCN(C(=O)Cn3nc(C(=O)N4C[C@@H](C)N[C@@H](C)C4)c4c3CCC4)CC2)c1C [Example 197, 1-[4-(2,3-dimethylphenyl)piperazin-1-yl]-2-{3-[(3R,5S)-3,5-dimethylpiperazine-1-carbonyl]-5,6-dihydrocyclopenta[c]pyrazol-1(4H)-yl}ethan-1-one] | 11.4
Cc1cccc(N2CCN(C(=O)Cn3nc(C(=O)N4CC[C@@H](N)[C@@H](C)C4)c4c3CCC4)CC2)c1C [Example 198, 2-{3-[(3S,4R)-4-amino-3-methylpiperidine-1-carbonyl]-5,6-dihydrocyclopenta[c]pyrazol-1(4H)-yl}-1-[4-(2,3-dimethylphenyl)piperazin-1-yl]ethan-1-one] | 89.6
Cc1cccc(N2CCN(C(=O)Cn3nc(C(=O)N4CC5CNC5C4)c4c3CCC4)CC2)c1C (stereo not shown) [Example 199, 2-[3-(3,6-diazaspiro[3.2.0]heptane-3-carbonyl)-5,6-dihydrocyclopenta[c]pyrazol-1(4H)-yl]-1-[4-(2,3-dimethylphenyl)piperazin-1-yl]ethan-1-one] | 19
Cc1cccc(N2CCN(C(=O)Cn3nc(C(=O)N4CCC(N)CC4)c4c3CCC4)CC2)c1C [Example 200, 2-[3-(4-aminopiperidine-1-carbonyl)-5,6-dihydrocyclopenta[c]pyrazol-1(4H)-yl]-1-[4-(2,3-dimethylphenyl)piperazin-1-yl]ethan-1-one] | 26.6
Cc1cccc(N2CCN(C(=O)Cn3nc(C(=O)N4CC[C@@H](F)[C@@H](O)C4)c4c3CCC4)CC2)c1C [Example 204, 1-[4-(2,3-dimethylphenyl)piperazin-1-yl]-2-[3-[(3S,4R)-4-fluoro-3-hydroxy-piperidine-1-carbonyl]-5,6-dihydro-4H-cyclopenta[c]pyrazol-1-yl]ethanone] | 13.1
